Several values for one entry are separate records, joined by “and”; a condition that tells them apart may be missing. Equal entries are not always repeated. Entries after “also recorded” stand apart in the source; their conditions may differ. Non-standard residues stand in square brackets, D forms with d. Residues, ends and D or L forms follow the SMILES beside them. d1Nal = N[C@H](Cc1cccc2ccccc12)C(=O)O; NMeF = CN[C@@H](Cc1ccccc1)C(=O)O; dCha = N[C@H](CC1CCCCC1)C(=O)O
B1: C5a des-Arg (protein)
chain: TLQKKIEEIAAKYKHSVVKKCCYDGACVNNDETCEQRAARISLGPRCIKAFTECCVVASQLRANISHKDMQLG
modifications: glycosylated (N-glycan at Asn64 of C5a, Asn741 of precursor, by convention); three intrachain disulfides
notes: C5a minus its C-terminal arginine, purchased from Merck
B2: C5a: endogenous 74 residue protein ligand of human C5aR, purchased from Sigma Aldrich and Sino Biological Inc (protein, UniProt P01031 678-751, looked up)
C5a anaphylatoxin: TLQKKIEEIAAKYKHSVVKKCCYDGACVNNDETCEQRAARISLGPRCIKAFTECCVVASQLRANISHKDMQLGR
modifications: C5a anaphylatoxin
notes: endogenous 74 residue protein ligand of human C5aR, purchased from Sigma Aldrich and Sino Biological Inc

Assays:
human C5aR [1] = target: T1, human C5aR (Homo sapiens, UniProt P21730); assay: 125I-C5a competitive receptor binding (SPA) on CHO-C5aR membranes; details: for IC50: CHO-C5aR membranes, 25 pM 125I-C5a, 95% confidence intervals in brackets
T1 construct: host or cells: CHO cells, stably transfected (G418 selection)
T1 sequence (P21730 1-350): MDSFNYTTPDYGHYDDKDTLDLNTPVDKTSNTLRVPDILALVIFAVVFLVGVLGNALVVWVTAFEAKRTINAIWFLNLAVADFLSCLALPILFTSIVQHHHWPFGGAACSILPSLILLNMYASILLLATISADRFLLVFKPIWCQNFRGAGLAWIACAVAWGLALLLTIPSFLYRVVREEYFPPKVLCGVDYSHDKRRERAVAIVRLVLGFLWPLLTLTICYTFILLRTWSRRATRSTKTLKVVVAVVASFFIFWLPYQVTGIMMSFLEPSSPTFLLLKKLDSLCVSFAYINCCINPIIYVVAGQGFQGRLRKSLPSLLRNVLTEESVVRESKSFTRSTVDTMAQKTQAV
Procedure: Membranes were prepared from CHO-C5aR cells by modification of a previously described method. Briefly, cells were washed with PBS, pH 7.4, and harvested into buffer (50 mM Tris-HCl, pH 7.4, 5 mM MgCl2, 1 mM CaCl2) before homogenising with a Polytron homogeniser for 3 min on setting 22. Cells were centrifuged at 150× g for 5 min at 4 °C. The supernatant was recovered and centrifuged at 22,000× g for 1 h at 4 °C. Membrane pellets were then resuspended in 0.4 mL of ice-cold assay buffer A (50 mM Tris-HCl, pH 7.4, 5 mM MgCl2, 1 mM CaCl2, 0.5% bovine serum albumin (BSA) (Sigma Aldrich) containing 10% glycerol) with aliquots stored at −80 °C. The protein concentration of the membrane preparations was determined by the Bradford method.
(§1) The scintillation proximity assay (SPA) was used to study ligand binding interactions with the receptor. The basic principle of the assay involved coupling receptor membrane preparations to coated SPA beads. When a radiolabelled ligand, which is able to bind to the receptor coupled onto the SPA bead, interacts with the receptor it will be close enough in proximity to activate the SPA bead. The radiolabel emits radiation that leads to the production of a light signal by activation of the scintillant in the bead. More specifically for our studies, receptor binding studies were performed using Polyvinyltoluene (PVT) scintillation beads, which have wheat germ agglutinin (WGA) covalently attached on the surface (Perkin Elmer). These beads allow for the development of a homogeneous GPCR radioligand binding assay using cellular membranes or whole cells. Briefly, receptor SPA studies were performed in 96-well white isoplates with clear flat bottoms (Perkin Elmer). ^125I-C5a (~25 pM) (specific activity, 2,200 Ci/mmol) (Perkin Elmer) was added to either CHO-C5aR membrane preparations (~2 µg/well) or HMDM (25,000 cells/well). SPA beads (200 µg/well) were then added, followed by the addition of various concentrations of competing ligands (6 pM to 100 µM) in a total volume of 80 µL of buffer A (CHO-C5aR) or B (HMDM) (50 mM Tris-HCl, pH 7.4, 0.5% BSA, and either 5 mM MgCl2, 1 mM CaCl2 (A) or 3 mM MgCl2, 0.1 mM CaCl2 (B)). The final reaction volume per well comprised 20 µL of ligand/buffer, 20 µL of PVT WGA SPA beads, 20 µL of membrane/cells and the assay was initiated by the addition of 20 µL of ^125I-C5a. The plate was then sealed using TopSeal-A (Perkin Elmer) sealing film and incubated with shaking for 1 h at room temperature. Radioligand binding was then assessed for 30 s/well using a 1450 Microbeta scintillation counter (Perkin Elmer). All binding and subsequent assay data, unless stated otherwise, was analysed using GraphPad Prism 5.0c (GraphPAD Software Inc., San Diego, CA, USA).

C5aR [2] = details: different cell types and assay platforms; cited from earlier work
human C5aR [3] = target: T1, human C5aR; assay: 125I-C5a competitive receptor binding (SPA) on HMDM; details: for IC50: 25 pM 125I-C5a, 95% confidence intervals in brackets
Text: as §1

C5aR [4] = system: C5aR; set-up: method as in PMID 7930622; details: neutrophils; cited from earlier work
human C5aR [5] = target: T1, human C5aR; assay: Alphascreen SureFire phospho-ERK1/2 assay in CHO-C5aR cells; assay type: cell-based; details: for EC50: 95% confidence intervals in brackets, read-out: ERK (EC50)
Procedure: (§2) Alphascreen (Amplified Luminescent Proximity Homogeneous Assay Screen) SureFire phospho-ERK1/2 assay was performed according to manufacturers’ instructions (Perkin Elmer). AlphaScreen involves the use of two beads, denoted the donor and acceptor beads. When both beads are bound as a pair to an analyte and the donor bead is excited, a singlet oxygen is released which activates the acceptor bead. As there is a distance constraint here, only beads in close proximity can lead to further reactions that produce the detectable chemiluminescent signal. Briefly, HMDM and CHO-C5aR cells were serum starved and incubated in 96-well tissue culture plates (Nunc) overnight at 60,000 and 50,000 cells/well, respectively. Ligands were prepared in serum-free media at a final DMSO concentration of 1%. Ligands were incubated at room temperature for 10 and 15 min with HMDM and CHO-C5aR, respectively. Media was removed and cells were lysed with lysis buffer for 10 min on a shaker, 4 μL of lysate was transferred to a white 96-well half area plate (Perkin Elmer) and incubated in the presence of 7 μL of reaction mix. The plate was sealed with TopSeal-A, incubated for 2 h at 37 °C and measured on an Envision plate reader (Perkin Elmer). Each data point was performed in triplicate and repeated in at least three separate experiments.

human C5aR [6] = target: T1, human C5aR; assay: Alphascreen SureFire phospho-ERK1/2 assay in HMDM; assay type: cell-based; details: for EC50: 95% confidence intervals in brackets, read-out: ERK (EC50)
Procedure: as §2

human C5aR [7] = target: T1, human C5aR; assay: EPIC label-free optical system on CHO-C5aR cells; assay type: cell-based; details: peak response ~5 min, 95% confidence intervals in brackets
Procedure: (§3) HMDM were seeded, at 50,000 cells/well and CHO-C5aR and CHO-K1 at 7,500 cells/well, into fibronectin-coated cell-based EPIC® plates (Corning) and incubated overnight. Prior to ligand addition, media was exchanged for HBSS (Invitrogen Life Technologies): 20 mM HEPES (Sigma Aldrich) buffer, supplemented with 0.5% DMSO, and allowed to equilibrate at 26 °C for 1 h (HMDM) or 2 h (CHO-C5aR and CHO-K1) within the instrument. Agonists were prepared at a final DMSO concentration of 0.5% in HBSS:HEPES buffer. After ligand addition, measurements were taken continuously for 1–2 h at 26 °C. Peak amplitude response (Figure 2) was measured for data analysis using Corning EPIC® software.

human C5aR [8] = target: T1, human C5aR; assay: EPIC label-free optical system on HMDM; assay type: cell-based; details: peak response ~5 min, 95% confidence intervals in brackets
Procedure: as §3

human C5aR [9] = target: T1, human C5aR; assay: xCELLigence label-free impedance system on CHO-C5aR cells; assay type: cell-based; details: predominant peak ~3.5 min, 95% confidence intervals in brackets
Procedure: (§4) HMDM were seeded at 30,000 cells/well, CHO-C5aR at 5,000 cells/well and CHO-K1 at 7,500 cells/well and incubated overnight in 384-well E-Plates (Roche). Ligand preparation and cell treatment was as described for the EPIC® protocol above. However, during the buffer exchange equilibration steps, cells were kept in the incubator at 37 °C with 5% CO2. HMDM were media exchanged with serum-free IMDM and incubated for 2 h prior to ligand addition with recordings at 37 °C. Ligands for the HMDM experiments were prepared in serum-free media. To ensure consistency with the EPIC® data, time point for data analysis was determined by a number of different factors, mainly maximum response of predominant peak (Figure 2), but point at which the EC50 was stable over this time according to the RTCA software was also used to confirm the time point

human C5aR [10] = target: T1, human C5aR; assay: xCELLigence label-free impedance system on HMDM; assay type: cell-based; details: predominant peak ~3.5 min, 95% confidence intervals in brackets
Procedure: as §4

| Molecule | Difference in binding IC50 relative to C5a (human C5aR [1]; CHO-C5aR) | Reduction in potency compared to C5a (C5aR [2]) | Difference in binding IC50 relative to C5a (human C5aR [3]) | IC50 (human C5aR [1]) | Functional character in myeloperoxidase release (C5aR [4]) | ERK EC50 relative to that of C5a (human C5aR [5]) | ERK response relative to the native ligand C5a (efficacy) (human C5aR [5]) | EC50 (human C5aR [5]) [nM] | ERK response relative to the native ligand C5a (efficacy) (human C5aR [6]) | EC50 (human C5aR [6]) [nM] | IC50 (human C5aR [3]) [nM] | EC50 (human C5aR [7]) [nM] | EC50 (human C5aR [8]) [nM] | EC50 (human C5aR [9]) [nM] | EC50 (human C5aR [10]) [nM] |
| --- | --- | --- | --- | --- | --- | --- | --- | --- | --- | --- | --- | --- | --- | --- | --- |
| C5a des-Arg | ~ 6 fold | 10–1,000 fold | ~ 2 fold | – | – | – | – | – | – | – | – | – | – | – | – |
| CN[C@@H](Cc1ccccc1)C(=O)N[C@@H](CCCCN)C(=O)N1CCC[C@H]1C(=O)N[C@H](CC1CCCCC1)C(=O)N[C@H](CC1CCCCC1)C(=O)N[C@H](CCCNC(=N)N)C(=O)O [Peptide agonist, NMePhe-Lys-Pro-dCha-dCha-dArg-COOH] (H-[NMeF]KP[dCha][dCha][dR]-OH) | – | – | – | 47 nM | full agonist | ~ 30 fold | potentiation of the response relative to the native ligand | 5 | characteristics of a partial agonist; also recorded: partial agonist activity | 120 | 132 | 347 | 563 | 351 | 546 |
| CN[C@@H](Cc1ccccc1)C(=O)N[C@@H](CCCCN)C(=O)N1CCC[C@H]1C(=O)N[C@H](CC1CCCCC1)C(=O)N[C@H](Cc1cccc2ccccc12)C(=O)N[C@H](CCCNC(=N)N)C(=O)O [Peptide partial agonist, NMePhe-Lys-Pro-dCha-dNal-dArg-COOH] (H-[NMeF]KP[dCha][d1Nal][dR]-OH) | – | – | – | – | – | – | approximately half of the response relative to C5a | – | approximately half of the response relative to C5a | – | – | – | – | – | – |
| B1 | – | – | – | 1.2 nM and 1.23 nM | – | – | – | 2 | – | 0.55 | 2.5 | 11 | 47 | 44 | 20 |
| B2 | – | – | – | 0.2 nM | – | – | – | 0.15 | – | 0.47 | 1.2 | 24 | 107 | 16 | 89 |
